In patent US9463194B2, “Methods of treating patients co-infected with HIV and tuberculosis” (priority 2014, dated 2016):
Converted amounts (≈) assume the structure as drawn. “Also recorded” adds a separate entry of the source.

What was measured:
[1] = RFB metabolite; cited from earlier work
[2] = Steady-state pharmacokinetic interaction study of EVG/COBI Composition plus evening COBI plus RFB QOD in healthy volunteers; format: in vivo, human
Procedure: “Ctau” or “Ctrough” is a pharmacokinetic (PK) parameter that refers to the concentration of the drug at the end of the dosing interval. This parameter is obtained by direct measurement of the drug concentrations in a plasma sample collected from the study subject at the end of the dosing interval (i.e., 24 hours post-dose) using a validated high-performance liquid chromatography/tandem mass spectrometry (HPLC/MS/MS) bioanalytical assay.
This study evaluated the steady-state pharmacokinetics and safety of the coadministered Composition and an additional dose of COBI in combination with RFB QOD.
Lack of PK alteration bounds for 90% confidence intervals (CI) about the geometric mean ratio (GMR) (coadministration: alone) were 70-143% for EVG and RFB.

[3] = in vivo; cited from earlier work
wild type HIV virus = test: In vitro assay of concentration-dependent inhibition of wild type HIV virus (IC95); format: cell-based
Excerpt: “IC95” or “EC95” refers to the inhibitory concentration required to achieve 95% of the maximum desired effect, which in the case of EVG is the inhibition of the HIV virus. This term is obtained using an in vitro assay evaluating the concentration-dependent inhibition of wild type HIV virus.

[4] = ritonavir-boosted EVG + RFB QOD; cited from earlier work
[5] = coadministration (Composition QD + COBI 150 mg evening + RFB 150 mg QOD) : alone, healthy volunteers, n = 14, steady state

## 25-O-desacetylrifabutin
[1]
  contribution to total antimycobacterial activity: ~10%
[2]; RFB metabolite, EVG QD + COBI BID + RFB QOD versus RFB alone
  exposure higher versus RFB alone: ~12 fold

## CC(C)c1nc(CN(C)C(=O)N[C@@H](CCN2CCOCC2)C(=O)N[C@H](CC[C@H](Cc2ccccc2)NC(=O)OCc2cncs2)Cc2ccccc2)cs1 [COBI]
[3]
  exposures upon coadministration with RFB (previous research): substantially lower
  levels lower by 24 hrs post dose when co-administered with RFB: 70%

## COc1cc2c(cc1Cc1cccc(Cl)c1F)c(=O)c(C(=O)O)cn2[C@H](CO)C(C)C [EVG, elvitegravir]
Wild type HIV virus
  IC95: 0.045 µg/mL (≈ 0.1 µM)
[3]
  exposures upon coadministration with RFB (previous research): substantially lower
  levels lower by 24 hrs post dose when co-administered with RFB: 70%

## CO[C@H]1/C=C/O[C@@]2(C)Oc3c(C)c(O)c4c(c3C2=O)C2=NC3(CCN(CC(C)C)CC3)NC2=C(NC(=O)/C(C)=C\C=C\[C@H](C)[C@H](O)[C@@H](C)[C@@H](O)[C@@H](C)[C@H](OC(C)=O)[C@@H]1C)C4=O [RFB, 1′,4-didehydro-1-deoxy-1,4-dihydro-5′-(2-methylpropyl)-1-oxorifamycin XIV]
[2]; Composition QD + COBI 150 mg evening + RFB 150 mg QOD, no-effect boundary 70-143%
  exposures versus reference treatment (in words): within the predefined no-effect boundary; also recorded: clinically equivalent exposures
[2]; EVG QD + COBI BID + RFB QOD versus reference treatment
  Ctau higher versus reference treatments: 41%
[2]; [5]
  AUCtau % GMR (90% CI): 114.44 (100.27, 130.62) %
  Cmax % GMR (90% CI): 116.26 (101.44, 133.23) %
  Ctau % GMR (90% CI): 140.76 (123.76, 160.09) %

## CC(C)c1nc(CN(C)C(=O)N[C@H](C(=O)N[C@@H](Cc2ccccc2)C[C@H](O)[C@H](Cc2ccccc2)NC(=O)OCc2cncs2)C(C)C)cs1 [ritonavir]
[4]
  exposure when co-administered with RFB QOD (ritonavir boosting, in words): maintained through the end of the dosing interval
